Laboratory results reported in patent US9765054B2, “Histone deacetylase inhibitors and compositions and methods of use thereof” (CHDI Foundation, Inc., priority 2011, dated 2017).

Columns and labels:
[1] = biological target: human catalytic domain HDAC4 protein (Homo sapiens, UniProt P56524, A743G/DEL730-739/DEL742-742); assay: Inhibition of HDAC4 catalytic domain enzymatic activity, Boc-Lys(Tfa)-AMC substrate, fluorescence; conditions: Class IIa selective substrate Boc-Lys(Tfa)-AMC, read-out: Biochemical HDAC-4 IC50;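 also: trypsin releases AMC from deacetylated substrate, fluorescence tracks enzyme activity, 15 min reaction at 37 °C, 100% activity defined by DMSO-only control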
[2] = system: cellular histone deacetylase enzymatic activity in Jurkat E6-1 cells; assay: Inhibition of cellular HDAC activity, Boc-Lys(Tfa)-AMC substrate, in Jurkat E6-1 cells; type: cell-based; conditions: Homo sapiens, Class IIa selective substrate Boc-Lys(Tfa)-AMC
Description: The potency of Class IIa Histone Deacetylase (HDAC) inhibitors is quantified by measuring the cellular histone deacetylase enzymatic activity using the Class IIa selective substrate, Boc-Lys(Tfa)-AMC. After penetration in Jurkat E6-1 cells, the substrate is deacetylated to Boc-Lys-AMC. After cell lysis and cleavage by trypsin, the fluorophore AMC is released from the deacetylated substrate only. The fluoresence of the sample is directly related to the histone deacetylase activity in the sample.
Jurkat E6.1 Cell Culture and Plating.
Jurkat E6.1 cells are cultured according to standard cell culture protocols in Jurkat E6.1 Growth Media (RPMI without phenol red, 10% FBS, 10 mM HEPES, and 1 mM Sodium Pyruvate). Jurkat E6.1 cells are counted using a Coulter Counter and resuspended in Jurkat E6.1 growth media at a concentration of 75,000 cells/35 μl. 35 μl or 75,000 cells is seeded into Greiner microtitre assay plates. The plates are then incubated at 37° C. and 5% CO2 while other assay components are being prepared.
Serially Dilute HDAC Inhibitor Compounds.
Serial dilutions of the HDAC inhibitors and control reference compound (1-(5-(3-((4-(1,3,4-oxadiazol-2-yl)phenoxy)methyl)-1,2,4-oxadiazol-5-yl)thiophen-2-yl)-2,2,2-trifluoroethanone) are made by first resuspending the lyophilized compound to a final concentration of 10 mM in 100% DMSO. Stocks of 70 μl aliquots of the 10 mM compound in DMSO are prepared and stored at −20° C. From one stock aliquot of each compound to be tested and the reference compound, a 16-point serial dilution is prepared according to Table 7 using a 125 μl 16-channel Matrix multi-channel pipette.
2 μl (200×) of each diluted solution and each control (full activity: 100% DMSO alone or full inhibition 1 mM) is stamped into V-bottom polypropylene 384-well compound plates using either the Bravo, Janus, or […] 16-channel Matrix multi-channel pipette. Each well with the 200× compound solution is diluted 1:20 by the addition of 38 μl Jurkat assay buffer+DMSO (9.5% DMSO, RPMI without phenol red, 0.09% FBS, 9 mM Hepes, and 0.9 mM Sodium Pyruvate equilibrated to room temperature)
Prepare 5× (500 μM) Boc-Lys(Tfa)-AMC Substrate.
5× (500 μM) substrate is prepared just prior to the addition to the assay. The 5× substrate is prepared by diluting a 100 mM Boc-Lys(Tfa)-AMC in DMSO solution 1:200 by adding it drop-wise to Jurkat assay medium (RPMI without phenol red, 0.1% FBS, 10 mM Hepes, and 1 mM Sodium Pyruvate equilibrated to 37° C.) while vortexing at slow speed to prevent precipitation.
10 ml of 3× lysis buffer is prepared with 8.8 ml of 3× stock lysis buffer (50 mM Tris-HCl, pH 8.0, 137 mM NaCl, 2.7 mM KCl, 1 mM MgCl2, 1% Nonidet P40 Substitute equilibrated to room temperature) and 1.2 ml of 3 mg/ml Trypsin equilibrated to room temperature.
5 μl of each solution of 1:20 diluted compound from above is transferred to the Greiner microtitre assay plates with 75,000 cells/well using the Bravo. Cells are then incubated for 2 hours at 37° C. and 5% CO2. The assay is then started by adding 10 μl of 5× (500 μM) substrate to the assay plate using either the Bravo or 16-channel Matrix multi-channel pipette. The cells are then incubated for 3 hours at 37° C. and 5% CO2. Next, 25 μl of 3× lysis buffer is added to each well using either the 125 μl 16 channel pipette or the Bravo. The assay plate is then incubated overnight (15-16 hours) at 37° C. and 5% CO2. The following day, the plates are shaken on an orbital shaker for 1 minute at 900 rpm. Finally the top read fluorescence (Excitation: 355 nm, Emission: 460 nm) is measured using PerkinElmer EnVision.

Row | IC50 [1] [µM] | IC50 [2] [µM] | Structure (SMILES)
1 | 6.22 | 36.9 | O=C(NO)[C@H]1[C@H](c2ccccc2)[C@H]1C1CCCCC1 (racemic) [Compound 5, (1R*,2R*,3R*)-2-Cyclohexyl-N-hydroxy-3-phenylcyclopropanecarboxamide]
2 | 20.6 | 50 | CC(C)Oc1ccccc1[C@@H]1C(c2ccccc2)[C@H]1C(=O)NO (mixture of isomers) [Compound 11a, (1R,2R,3R*)—N-Hydroxy-2-(2-isopropoxyphenyl)-3-phenylcyclopropanecarboxamide]
3 | 0.32 | 1.83 | O=C(NO)[C@@H]1[C@H](c2ccccc2)[C@H]1c1ccccc1F (racemic) [Compound 11b, (1R*,2R*,3R*)-2-(2-Fluorophenyl)-N-hydroxy-3-phenylcyclopropanecarboxamide]
4 | 0.94 | 7.67 | O=C(NO)[C@H]1[C@H](c2ccccc2)[C@H]1c1ccccc1F (racemic) [Compound 13, (1S*,2R*,3R)-2-(2-Fluorophenyl)-N-hydroxy-3-phenylcyclopropanecarboxamide]
5 | 0.62 | 6.53 | O=C(NO)[C@@H]1[C@H](c2ccccc2)[C@H]1c1ccccc1Br (racemic) [Compound 16a, (1R*,2R*,3R*)-2-(2-Bromophenyl)-N-hydroxy-3-phenylcyclopropanecarboxamide]
6 | 0.07 | 1.41 | O=C(NO)[C@@H]1[C@H](c2ccccc2)[C@H]1c1cccc(Br)c1 (racemic) [Compound 16b, (1R*,2R*,3R*)-2-(3-Bromophenyl)-N-hydroxy-3-phenylcyclopropanecarboxamide]
7 | 0.37 | 2.87 | O=C(NO)[C@@H]1[C@H](c2ccccc2)[C@H]1c1ccc(Br)cc1 (racemic) [Compound 16c, (1R*,2R*,3R*)-2-(4-Bromophenyl)-N-hydroxy-3-phenylcyclopropanecarboxamide]
8 | 1.72 | 13.2 | Cc1ccccc1[C@H]1[C@H](C(=O)NO)[C@@H]1c1ccccc1 (racemic) [Compound 18a, (1R*,2R*,3R*)—N-Hydroxy-2-phenyl-3-o-tolylcyclopropanecarboxamide]
9 | 0.15 | 2.74 | Cc1cccc([C@H]2[C@H](C(=O)NO)[C@@H]2c2ccccc2)c1 (racemic) [Compound 18b, (1R*,2R*,3R*)—N-Hydroxy-2-phenyl-3-m-tolylcyclopropanecarboxamide]
10 | 0.15 | 2.25 | Cc1ccc([C@H]2[C@H](C(=O)NO)[C@@H]2c2ccccc2)cc1 (racemic) [Compound 18c, (1R*,2R*,3R*)—N-Hydroxy-2-phenyl-3-p-tolylcyclopropanecarboxamide]
11 | 0.05 | 1.32 | O=C(NO)[C@@H]1[C@H](c2ccccc2)[C@H]1c1ccc(NS(=O)(=O)C2CC2)cc1 (racemic) [Compound 22, (1R*,2R*,3R*)-2-(4-(cyclopropanesulfonamido)phenyl)-N-hydroxy-3-phenylcyclopropanecarboxamide]
12 | 0.2 | 1.63 | O=C(NO)[C@@H]1[C@H](c2ccccc2)[C@H]1c1ccc(-n2ccnc2)cc1 (racemic) [Compound 42, (1R*,2R*,3R*)-2-(4-(1H-imidazol-1-yl)phenyl)-N-hydroxy-3-phenylcyclopropanecarboxamide]
13 | 0.28 | 1.26 | O=C(NO)[C@@H]1[C@H](c2ccccc2)[C@H]1c1ccc(-c2cnc(-c3ccccc3)o2)cc1 (racemic) [Compound 48, (1R*,2R*,3R*)—N-Hydroxy-2-phenyl-3-(4-(2-phenyloxazol-5-yl)phenyl)cyclopropanecarboxamide]
14 | 0.22 | 0.81 | O=C(NO)[C@@H]1[C@H](c2ccccc2)[C@H]1c1ccc(-c2ncc(C3CC3)cn2)cc1 (racemic) [Compound 50c, (1R*,2R*,3R*)-2-(4-(5-Cyclopropylpyrimidin-2-yl)phenyl)-N-hydroxy-3-phenylcyclopropanecarboxamide]
15 | – | 0.88 | O=C(NO)[C@@H]1[C@H](c2ccccc2)[C@H]1c1ccc(-c2nccc(C(F)(F)F)n2)cc1 (racemic) [Compound 50d, (1R*,2R*,3R*)-2-(4-(4-Trifluoromethylpyrimidin-2-yl)phenyl)-N-hydroxy-3-phenylcyclopropanecarboxamide]
16 | 0.11 | 0.66 | O=C(NO)[C@@H]1[C@H](c2ccccc2)[C@H]1c1ccc(-c2ccnnc2)cc1 (racemic) [Compound 50g, (1R*,2R*,3R*)—N-Hydroxy-2-phenyl-3-(4-(pyridazin-4-yl)phenyl)cyclopropanecarboxamide]
17 | – | 0.48 | Cc1cnc(-c2ccc([C@H]3[C@H](C(=O)NO)[C@@H]3c3ccccc3)cc2)nc1 (racemic) [Compound 50k, (1R*,2R*,3R*)—N-Hydroxy-2-(4-(5-methylpyrimidin-2-yl)phenyl)-3-phenylcyclopropanecarboxamide]
18 | 0.48 | 1.79 | O=C(NO)[C@@H]1[C@H](c2ccccc2)[C@H]1c1ccc(-c2ccc3c(c2)CN(C2CC2)C3)cc1 (racemic) [Compound 52, (1R*,2R*,3R*)-2-(4-(2-cyclopropylisoindolin-5-yl)phenyl)-N-hydroxy-3-phenylcyclopropanecarboxamide]
19 | 5.66 | 50 | O=C(NO)[C@@H]1[C@H](c2ccccc2)[C@H]1c1ccc(-c2ccc(-n3c4ccccc4c4ccccc43)cc2)cc1 (racemic) [Compound 54b, (1R*,2R*,3R*)-2-(4′-(9H-carbazol-9-yl)-[1,1′-biphenyl]-4-yl)-N-hydroxy-3-phenylcyclopropanecarboxamide]
20 | 0.09 | 0.76 | CC(C)N1CCN(c2ccc([C@H]3[C@H](C(=O)NO)[C@@H]3c3ccccc3)cc2)CC1 (racemic) [Compound 56a, (1R*,2R*,3R*)—N-Hydroxy-2-(4-(4-isopropylpiperazin-1-yl)phenyl)-3-phenylcyclopropanecarboxamide]
21 | 1.43 | 5.08 | CC(C)N1CCN(c2cccc([C@H]3[C@H](C(=O)NO)[C@@H]3c3ccccc3)c2)CC1 (racemic) [Compound 56b, (1R*,2R*,3R*)—N-Hydroxy-2-(3-(4-isopropylpiperazin-1-yl)phenyl)-3-phenylcyclopropanecarboxamide]
22 | 0.39 | 2.18 | O=C(NO)[C@@H]1[C@H](c2ccccc2)[C@H]1c1cccc(N2CCC(N3CCCC3)CC2)c1 (racemic) [Compound 56g, (1R*,2R*,3R*)—N-Hydroxy-2-phenyl-3-(3-(4-(pyrrolidin-1-yl)piperidin-1-yl)phenyl)cyclopropanecarboxamide]
23 | 0.14 | 1.31 | CN1CCN(c2ccc([C@H]3[C@H](C(=O)NO)[C@@H]3c3ccccc3)cc2)CC1 (racemic) [Compound 56i, (1R*,2R*,3R*)—N-Hydroxy-2-(4-(4-methylpiperazin-1-yl)phenyl)-3-phenylcyclopropanecarboxamide]
24 | 0.27 | 1.55 | C[C@@]1(C(=O)NO)[C@H](c2ccccc2)[C@H]1c1ccc(-c2ncc(F)cn2)cc1 (racemic) [Compound 63, (1R*,2S*,3S*)-2-(4-(5-Fluoropyrimidin-2-yl)phenyl)-N-hydroxy-1-methyl-3-phenylcyclopropanecarboxamide]
25 | – | 0.42 | O=C(NO)[C@@H]1[C@H](c2ccccc2)[C@H]1c1ccc(-c2ncc(Cl)cn2)cc1 [Compound 50j, (1R,2R,3R)-2-(4-(5-Chloropyrimidin-2-yl)phenyl)-N-hydroxy-3-phenylcyclopropanecarboxamide]
